Laboratory results: US6911443B2 (Bayer Aktiengesellschaft, priority 2000, dated 2005)

target: T1, human Syk (GST-Syk) (Homo sapiens, UniProt P43405); experiment: Syk tyrosine kinase inhibitory assay; format: biochemical; conditions: in vitro; compounds as yielded by solid phase synthesis, purity about 40 to 90%
T1 construct: A cDNA fragment encoding human Syk openreading frame was cloned; made in house; host or cells: Sf21 insect cells (baculovirus, transfer vector pAcG2T)
Excerpt: [Syk Tyrosine Kinase Inhibitory Assay]
(1) Preparation of Syk Protein
A cDNA fragment encoding human Syk openreading frame was cloned from total RNA of human Burkitt's lymphoma B cell lines, Raji (American Type Culture Collection), with the use of RT-PCR method. The cDNA fragment was inserted into pAcG2T (Pharmingen, San Diego, Calif.) to construct a baculovirus transfer vector. Then the vector, together with the linearized baculovirus (BaculoGold™, Pharmingen), was used to transfect Sf21 cells (Invitrogen, San Diego, Calif.).
Generated recombinant baculovirus was cloned and amplified in Sf21 cells. Sf21 cells were infected with this amplified high titer virus to produce a chimeric protein of Syk kinase fused by glutathione-S-transferase (GST).
The resulting GST-Syk was purified with the use of glutathione column (Amersham Pharmacia Biotech AB, Uppsala, Sweden) according to the manufacturer's instruction.
(2) Synthesize of a Peptide
Next, a peptide fragment of 30 residues including two tyrosine residues, […], was synthesized by a peptide synthesizer. The N-terminal of the fragment was then biotinylated to obtain biotinylated activation loop peptide (AL).
(3) The Measurement of Syk Tyrosine Kinase Activity
All reagents were diluted with the Syk kinase assay buffer (50 mM Tris-HCl (pH 8.0), 10 mM MgCl2, 0.1 mM Na3VO4, 0.1% BSA, 1 mM DTT). First, a mixture (35 μl) including […] of GST-Syk and 0.5 μg of AL was put in each well in 96-well plates. Then 5 μl of a test compound in the presence of 2.5% dimethylsulfoxide (DMSO) was added to each well. To this mixture was added […] (10 μl) to initiate the kinase reaction. The final reaction mixture (50 μl) consists of 0.65 nM GST-Syk, 3 μM AL, 30 μM ATP, a test compound, 0.25% DMSO, and a Syk kinase assay buffer.
The mixture was incubated for 1 hr at room temperature, and the reaction was terminated by the addition of 120 μl of termination buffer (50 mM Tris-HCl (pH 8.0), 10 mMEDTA, 500 mM NaCl, 0.1% BSA). The mixture was transferred to streptavidin-coated plates and incubated for 30 min at room temperature to combine biotin-AL to the plates. After washing the plates with Tris-buffered saline (TBS) (50 mM Tris-HCl (pH 8.0), 138 mM NaCl, 2.7 mM KCl) containing 0.05% Tween-20 for 3 times, 100 μl of antibody solution consisting of 50 mM Tris-HCl (pH 8.0), 138 mM NaCl, 2.7 mM KCl, 1% BSA, 60 ng/ml anti-phosphotyrosine monoclonal antibody, 4G10 (Upstate Biotechnology), which is labeled with europium by Amersham Pharmacia's kit in advance, was added and incubated at room temperature for 60 min. After washing, 100 μl of enhancement solution (Amersham pharmacia Biotech) was added and then time-resolved fluorescence was measured by multi-label counter ARVO (Wallac Oy, Finland) at 340 nm for excitation and 615 nm for emission with 400 msec of delay and 400 msec of window.

Row | SMILES | Activity grade (IC50 class)
1 | COc1ccc(-c2cc3nccn3c(N3CCN(c4ccc(Cl)c(Cl)c4)CC3)n2)cc1OC [Example 9-42] | C-D
2 | COc1ccc(-c2cc3nccn3c(N3CCN(C(c4ccc(F)cc4)c4ccc(F)cc4)CC3)n2)cc1OC [Example 9-45] | C-D
3 | COc1ccc(-c2cc3nccn3c(N3CCN(C4CCCCC4)CC3)n2)cc1OC [Example 9-48] | C-D
4 | COc1ccc(-c2cc3nccn3c(N3CCN(c4ccc(C(F)(F)F)cn4)CC3)n2)cc1OC [Example 9-50] | C-D
5 | COc1ccc(-c2cc3nccn3c(N3CCC(Cc4ccccc4)CC3)n2)cc1OC [Example 9-59] | C-D
6 | COc1ccc(-c2cc3nccn3c(N3CCC(C(=O)c4ccc(F)cc4)CC3)n2)cc1OC [Example 9-61] | C-D
7 | COC(=O)[C@@H]1CCCN1c1nc(-c2ccc(OC)c(OC)c2)cc2nccn12 [Example 9-71] | C-D

same assay, conditions: in vitro; compounds as yielded by solid phase synthesis, purity about 40 to 90%; read-out: Activity grade (IC50 class)

Row | SMILES | IC50 [nM]
8 | COc1ccc(N2CCN(c3nc(-c4ccc(OC)c(OC)c4)cc4nccn34)CC2)cc1 [Example 9-40] | 2000 to 10000
9 | COc1ccc(-c2cc3nccn3c(N3CCN(c4ncccn4)CC3)n2)cc1OC [Example 9-41] | 500 to 2000
10 | COc1cccc(N2CCN(c3nc(-c4ccc(OC)c(OC)c4)cc4nccn34)CC2)c1 [Example 9-43] | 2000 to 10000
11 | COc1ccc(-c2cc3nccn3c(N3CCN(c4ccc(C)cc4)CC3)n2)cc1OC [Example 9-44] | 2000 to 10000
12 | COc1ccc(-c2cc3nccn3c(N3CCN(C(=O)c4ccco4)CC3)n2)cc1OC [Example 9-46] | 2000 to 10000
13 | COc1ccc(-c2cc3nccn3c(N3CCN(c4ccccc4F)CC3)n2)cc1OC [Example 9-47] | 2000 to 10000
14 | COc1ccc(-c2cc3nccn3c(N3CCN(C(C)=O)CC3)n2)cc1OC [Example 9-49] | 500 to 2000
15 | COc1ccc(-c2cc3nccn3c(N3CCN(CCO)CC3)n2)cc1OC [Example 9-51] | 2000 to 10000
16 | CCN(Cc1ccncc1)c1nc(-c2ccc(OC)c(OC)c2)cc2nccn12 [Example 9-52] | 500 to 2000
17 | COc1ccc(-c2cc3nccn3c(N(C)CCC(O)c3ccccc3)n2)cc1OC (stereo not drawn) [Example 9-53] | < 500
18 | COc1ccc(-c2cc3nccn3c(N3CCCCC3)n2)cc1OC [Example 9-54] | 500 to 2000
19 | COc1ccc(-c2cc3nccn3c(N3CCCC3)n2)cc1OC [Example 9-55] | 500 to 2000
20 | CCN(CC)c1nc(-c2ccc(OC)c(OC)c2)cc2nccn12 [Example 9-56] | 500 to 2000
21 | COc1ccc(-c2cc3nccn3c(N3CCC(C(N)=O)CC3)n2)cc1OC [Example 9-57] | < 500
22 | COc1ccc(-c2cc3nccn3c(N3CCC(=O)CC3)n2)cc1OC [Example 9-58] | 500 to 2000
23 | COc1ccc(-c2cc3nccn3c(N3CCC(c4ccc(O)cc4)CC3)n2)cc1OC [Example 9-60] | 500 to 2000
24 | COc1ccc(-c2cc3nccn3c(N3CCC(C)CC3)n2)cc1OC [Example 9-62] | 2000 to 10000
25 | COc1ccc(-c2cc3nccn3c(N3CCC(N4CCCCC4)CC3)n2)cc1OC [Example 9-63] | 2000 to 10000
26 | COc1ccc(-c2cc3nccn3c(N3CCC(O)(c4ccc(Cl)cc4)CC3)n2)cc1OC [Example 9-64] | 2000 to 10000
27 | COc1ccc(-c2cc3nccn3c(N3CCCC(CO)C3)n2)cc1OC (stereo not drawn) [Example 9-65] | 500 to 2000
28 | COc1ccc(-c2cc3nccn3c(N3CCC4(CC3)OCCO4)n2)cc1OC [Example 9-66] | 2000 to 10000
29 | COC(=O)C1CCN(c2nc(-c3ccc(OC)c(OC)c3)cc3nccn23)CC1 [Example 9-67] | 2000 to 10000
30 | COc1ccc(-c2cc3nccn3c(N3CCC(C#N)(c4ccccc4)CC3)n2)cc1OC [Example 9-68] | 2000 to 10000
31 | COc1ccc(-c2cc3nccn3c(N3CCC(O)CC3)n2)cc1OC [Example 9-69] | 500 to 2000
32 | COc1ccc(-c2cc3nccn3c(N3CC[C@@H](NC(=O)C(F)(F)F)C3)n2)cc1OC [Example 9-70] | 2000 to 10000
33 | CCOC(=O)N1CCN(c2nc(-c3ccc(OC)c(OC)c3)cc3nccn23)CC1 [Example 9-72] | 2000 to 10000
